Reference: PMC5884943, “Discovery of Novel Inhibitors of Indoleamine 2,3-Dioxygenase 1 Through Structure-Based Virtual Screening” (Frontiers in Pharmacology, 2018)

Target: T1, human IDO1 protein (Homo sapiens, UniProt P14902)
T1 construct: purchased ChemPartner Lot; No. 20160706
Test: Enzymatic IDO1 assay (Absorbance 321 assay)
Assay type: biochemical
Conditions: for Avg_Inh (%) @ 50uM: average inhibition, Table S2; for Background (%): background signal of the compound in the absorbance assay; for inhibition at 20 µM / Inhibition ratio (%) @ 20 μM: 20 μM compound; for inhibition at 20 µM: read-out: Inhibition ratio (%) @ 20 μM
Procedure: The standard assay mixture contained modified potassium phosphate buffer at pH 6.5, 100 μM L-tryptophan (Sigma, Cat. […] No. […]). […] Then the assay plate was read at OD321 kinetically in Spectramax. […] Fit the data in […]5.0 software to obtain IC50-values using Equation (2): (2) Y=Bottom+Top-Bottom/1+10^(logIC50-X)×HillSlope where Y stands for inhibition percentage and X stands for compound concentration. All determinations were carried out in duplicate.

T1 sequence (P14902 whole entry): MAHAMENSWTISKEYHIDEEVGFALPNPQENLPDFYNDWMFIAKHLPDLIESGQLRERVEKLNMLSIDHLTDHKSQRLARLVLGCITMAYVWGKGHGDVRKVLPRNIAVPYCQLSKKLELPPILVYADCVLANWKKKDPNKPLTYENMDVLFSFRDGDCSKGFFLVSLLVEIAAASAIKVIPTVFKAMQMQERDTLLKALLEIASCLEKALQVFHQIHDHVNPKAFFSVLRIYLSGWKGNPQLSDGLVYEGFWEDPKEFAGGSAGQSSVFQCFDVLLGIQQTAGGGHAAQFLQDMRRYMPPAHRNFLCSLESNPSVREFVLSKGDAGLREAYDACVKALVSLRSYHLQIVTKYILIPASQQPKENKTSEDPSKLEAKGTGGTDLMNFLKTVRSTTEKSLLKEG

SMILES	Avg_Inh (%) @ 50uM [%]	Background (%)	inhibition at 20 µM [%]	Inhibition ratio (%) @ 20 μM [%]	IC50 (IDO1 enzymatic level) [µM]
CC(C)c1ccc(O)c(C(=O)c2cnn(-c3ccccc3)c2)c1 [DCI-024]	45.39	56.24			
Cc1cc(=O)oc2cc(OCCSc3ccccc3)ccc12 [DCI-012]	42.86	56.72			
Cc1ccc(C2C(C#N)=C(N)Oc3ccc4ccc(O)cc4c32)cc1 (stereo not shown) [DCI-069]	79.20	42.53			
O=C(NCCc1cccc(Cl)c1)c1cccc2ccccc12 [DCI-104]	25.72	41.51			
CC(=O)c1[nH]c2ccccc2c1C(C)=O [DCI-053]	3.68	43.33			
COc1ccc(CNC(=O)COc2ccc3ccccc3c2)cc1 [DCI-005]	11.86	36.51			
Cc1ccc(C(C)C)cc1C(=O)CC1(O)C(=O)N(C)c2ccc(Br)cc21 (stereo not shown) [DCI-014]	28.34	41.98			
CN(CCCNc1cc(=O)oc2ccccc12)C(=O)c1ccc(F)cc1 [DCI-035]	2.22	46.21			
CC1CCCN(C(C)CS(=O)(=O)c2ccc3ccccc3c2)C1 (stereo not shown) [DCI-021]	-2.20	37.17			
O=c1c(-c2nc3ccccc3[nH]2)coc2cc(O)ccc12 [DCI-025]	9.07	66.83			
CC(=O)Nc1ccc(NC(=O)C2CC(=O)N(c3ccccc3)C2)cc1 (stereo not shown) [DCI-006]	2.62	34.97			
CCn1c(SCC(=O)Nc2ccccc2[N+](=O)[O-])nnc1-c1ccc(O)cc1 [DCI-068]	5.69	35.54			
O=C(OCc1ccc(Cl)cc1)c1cc2ccccc2cc1O [DCI-003]	35.38	51.94			
CC(=O)N(C)c1ccc(-c2c(O)ccc3ccccc23)cc1 [DC-I02812]			4.69		
Clc1ccc2[nH]cc(-c3nnnn3-c3ccccc3)c2c1 [DCI-004]	49.29	38.90			
COc1cc2c(cc1OC)C(c1ccc(Br)cc1)OCC2 (stereo not shown) [DCI-022]	34.49	44.32			
O=C(O)c1ccc(Cn2nnc3cc4ccccc4cc32)cc1 [DCI-080]	-3.23	48.38			
Cc1oc2ccc(O)cc2c1C(=O)c1ccc(Br)cc1 [DCI-057]	67.78	57.09			
O=C(CC1Nc2ccccc2NC1=O)NCc1ccccc1 (stereo not shown) [DCI-039]	-1.03	36.31			
Cc1nn(C)cc1CN(C)C(=O)c1cc2ccccc2oc1=O [DCI-063]	2.41	54.16			
Cc1cccc(C)c1N1CC(C(=O)Nc2cccc3ccccc23)CC1=O (stereo not shown) [DCI-020]	10.24	35.53			
O=C(CSc1ncnc2sc3c(c12)CCC3)Nc1ccccc1 [DCI-061]	63.45	54.35			
COc1ccc(/C=C\c2nccc3ccccc23)cc1OC [DCI-011]	2.22	51.96			
c1ccc(CNCC2OCCc3ccccc32)cc1 (stereo not shown) [DCI-101]	-0.96	35.16			

SMILES	Avg_Inh (%) @ 50uM [%]	Background (%)	inhibition at 20 µM [%]	Inhibition ratio (%) @ 20 μM [%]	IC50 (IDO1 enzymatic level) [µM]
Cc1cc(=O)c2ccc(C(F)(F)F)cc2[nH]1 [DCI-038]	6.52	60.07			
COc1cccc(-c2[nH]nc3c2C(c2ccccc2F)C(C#N)=C(N)O3)c1 (stereo not shown) [DCI-008]	22.90	42.25			
O=[N+]([O-])C1C(O)c2ccccc2OC1c1ccccc1 (stereo not shown) [DCI-031]	13.99	39.14			
CCOc1nccc2sc3ccccc3c12 [DCI-044]	44.52	40.43			
Oc1ccc2ccccc2c1Sc1nnnn1-c1ccccc1 [DC-I02813]			15.6		
COc1ccc2nc(C(C)O)[nH]c2c1 (stereo not shown) [DCI-097]	-2.09	37.58			
Cc1ccc(/C=N/Nc2nc3ccccc3[nH]c2=O)cc1 [DCI-023]	-2.26	53.84			
Cc1cc(C)c(S(=O)(=O)N2CCC(C(N)=O)CC2)cc1C [DCI-087]	-2.50	34.87			
O=c1cc(NCCN2CCCC2)c2ccccc2o1 [DCI-047]	-3.88	42.54			
CCCn1c(=O)c(C(=O)Nc2ccccc2N)c(O)c2ccccc21 [DCI-041]	72.23	50.76			
NNC(=O)c1ccc(COc2ccc3c(c2)CCC3)cc1 [DCI-040]	40.66	31.86			
N#CCn1nc(-c2ccc(Cl)cc2)c2c1-c1ccccc1C2 [DCI-077]	51.64	57.47			
Cc1cccc(NC(=S)NC(=O)c2cc3ccccc3o2)n1 [DCI-036]	76.32	74.58			
COc1ccc2ccccc2c1/C=N/NC(N)=S [DCI-084]	35.60	64.61			
O=c1/c(=C/c2c(O)ccc3ccccc23)sc2n1CCCN=2 [DCI-073]	64.05	54.63			
Nc1ccc(Br)cc1C(O)c1ccc(Cl)cc1 (stereo not shown) [DC-I032]	63.02	33.85		25.26	
c1csc(CNCCCc2nc3ccccc3[nH]2)c1 [DCI-019]	-8.21	33.33			
Oc1cccc(C(O)CNCc2c(Cl)cccc2Cl)c1 (stereo not shown) [DCI-052]	3.32	31.34			
Nc1ccccc1/C=C1/C(=O)Nc2ccccc21 [DCI-009]	12.24	52.98			
CCCc1[nH]nc2c1C(c1cccc(O)c1)C(C#N)=C(N)O2 (stereo not shown) [DCI-043]	1.84	30.60			
O=C(Cc1coc2ccc3ccccc3c12)N1CCCC1 [DCI-095]	-1.55	43.56			
CC(O)CNCc1ccc(OCc2ccc3c(c2)OCCO3)cc1 (stereo not shown) [DCI-018]	-2.06	34.42			
COc1ccc(-c2nc(=O)cc(-c3ccccc3)o2)cc1 [DCI-048]	7.58	71.51			
CCCCOc1cccc(-c2c(O)ccc3ccccc23)c1 [DC-I02811]			8.19		

SMILES	Avg_Inh (%) @ 50uM [%]	Background (%)	inhibition at 20 µM [%]	Inhibition ratio (%) @ 20 μM [%]	IC50 (IDO1 enzymatic level) [µM]
O=C(COc1ccc2ccccc2c1)c1ccc(Br)cc1 [DCI-075]	79.98	55.42			
CC(C)(C)NC(=O)Cc1coc2ccc3ccccc3c12 [DCI-071]	22.41	39.05			
O=C(NC(=S)Nc1c(O)ccc2ccccc12)c1ccccc1I [DC-I02807]			59.6		25
CCn1c(SCc2nc3ccccc3[nH]2)nc2cc(C(=O)OC)ccc2c1=O [DCI-103]	43.77	52.04			
Cc1onc(-c2ccccc2Cl)c1C(=O)Nc1cccc([N+](=O)[O-])c1 [DCI-067]	28.06	37.16			
O=S(=O)(c1ccc(N=Cc2c(O)ccc3ccccc23)cc1)N1CCCCC1 [DCI-100]	94.68	57.16			
COc1ccc(C(N)=O)cc1NS(=O)(=O)c1cccc2cccnc12 [DCI-016]	5.08	38.92			
CC(O)Cn1c(=O)c(=O)[nH]c2ccccc21 (stereo not shown) [DCI-051]	6.69	57.46			
O=[N+]([O-])c1ccccc1Sc1c(O)ccc2ccccc12 [DCI-072]	74.65	49.90			
O=C1c2ccccc2C(=O)N1CNCc1cc(=O)[nH]c(=O)[nH]1 [DCI-054]	4.51	48.55			
O=C(NC(=S)Nc1cccc2cc(O)ccc12)c1ccco1 [DC-I02810]			15.6		
O=C(NCCCNC(=O)c1cc2ccccc2[nH]1)c1ccc(F)cc1 [DCI-034]	5.04	42.24			
Cc1cc(-c2cccs2)c2c(N)c(C(=O)NCCc3c[nH]c4ccccc34)sc2n1 [DC-I079]	85.60	60.62		36.42	
Cc1ccc([N+](=O)[O-])cc1NC(=O)COc1ccc2ccccc2c1Br [DCI-083]	40.17	40.73			
CC(=O)Nc1ccc(NC(=O)COc2ccc(Br)cc2C)cc1 [DCI-085]	-4.72	37.26			
COc1cc(C)c(Cl)cc1S(=O)(=O)Nc1cccc(C)c1C [DCI-070]	46.52	35.28			
Cc1nc2ccccc2cc1C(=O)N/N=C/c1cccc(Cl)c1 [DCI-065]	26.49	68.09			
Cc1ccc(C)c(NS(=O)(=O)c2ccc3ccccc3c2)c1 [DCI-096]	58.68	49.37			
c1ccc2cc(OCc3nc4ccccc4s3)ccc2c1 [DCI-002]	81.62	44.08			
O=C(CSc1nnc(COc2ccc(Cl)cc2Cl)o1)Nc1ccccn1 [DC-I090]	95.14	34.84		41.43	
Cc1cc2ccccc2n2c(SCC(=O)Nc3ccc(S(N)(=O)=O)cc3)nnc12 [DCI-099]	27.63	49.90			
O=C1OC(c2ccccc2)c2ccc3ccccc3c21 (stereo not shown) [DCI-042]	59.00	48.79			
